Data reported in PubChem BioAssay (NCI).
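These data come from cells grown in 96-well plates and exposed to compound for 48 hours at five concentrations. Abbreviation: GI50, concentration required for 50% inhibition of growth. TGI denotes the concentration required for complete inhibition of growth.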

Key:
Assay in all cases: DTP human tumour cell line panel, 48 h
NCI/ADR-RES ovarian = test system: NCI/ADR-RES ovarian
DU-145 prostate = test system: DU-145 prostate
MCF7 breast = test system: MCF7 breast
SR leukemia = test system: SR leukemia
HT29 colon = test system: HT29 colon
K-562 leukemia = test system: K-562 leukemia
MOLT-4 leukemia = test system: MOLT-4 leukemia
OVCAR-8 ovarian = test system: OVCAR-8 ovarian
SNB-75 CNS = test system: SNB-75 CNS
A498 renal = test system: A498 renal
UACC-257 melanoma = test system: UACC-257 melanoma
SK-MEL-28 melanoma = test system: SK-MEL-28 melanoma
NCI-H226 lung = test system: NCI-H226 lung
IGROV1 ovarian = test system: IGROV1 ovarian
HCC-2998 colon = test system: HCC-2998 colon
MALME-3M melanoma = test system: MALME-3M melanoma
HCT-15 colon = test system: HCT-15 colon
HOP-62 NSCLC = test system: HOP-62 NSCLC
ACHN renal = test system: ACHN renal
SN12C renal = test system: SN12C renal
A549 NSCLC = test system: A549 NSCLC
UO-31 renal = test system: UO-31 renal
LOX IMVI melanoma = test system: LOX IMVI melanoma
T-47D breast = test system: T-47D breast
SF-268 CNS = test system: SF-268 CNS
HCT-116 colon = test system: HCT-116 colon
SNB-19 CNS = test system: SNB-19 CNS
RXF 393 renal = test system: RXF 393 renal
SK-MEL-5 melanoma = test system: SK-MEL-5 melanoma
OVCAR-5 ovarian = test system: OVCAR-5 ovarian
BT-549 breast = test system: BT-549 breast
MDA-MB-435 = test system: MDA-MB-435
NCI-H460 lung = test system: NCI-H460 lung
OVCAR-3 ovarian = test system: OVCAR-3 ovarian
SF-295 CNS = test system: SF-295 CNS
OVCAR-4 ovarian = test system: OVCAR-4 ovarian
SK-OV-3 ovarian = test system: SK-OV-3 ovarian
786-0 renal = test system: 786-0 renal
HS 578T breast = test system: HS 578T breast
MDA-MB-231 breast = test system: MDA-MB-231 breast
NCI-H522 lung = test system: NCI-H522 lung
SF-539 CNS = test system: SF-539 CNS
SK-MEL-2 melanoma = test system: SK-MEL-2 melanoma
COLO 205 colon = test system: COLO 205 colon
SW-620 colon = test system: SW-620 colon
KM12 colon = test system: KM12 colon
U251 CNS = test system: U251 CNS
M14 melanoma = test system: M14 melanoma
HOP-92 NSCLC = test system: HOP-92 NSCLC
TK-10 renal = test system: TK-10 renal
RPMI-8226 leukemia = test system: RPMI-8226 leukemia
CAKI-1 renal = test system: CAKI-1 renal

`BrCCCc1n(Cc2ccc3ccccc3c2)c2ccccc2[n+]1Cc1ccc2ccccc2c1` was tested, and the GI50 (NCI/ADR-RES ovarian) was 8.47 µM, the TGI (NCI/ADR-RES ovarian) was > 81.3 µM and the GI50 (DU-145 prostate) was 1.58 µM. It also gave a TGI (DU-145 prostate) of 4.25 µM.

In the case of `Cc1ccc(-c2cc3nc(C(Cl)Cl)nc(-c4cccnc4)n3n2)cc1`, the GI50 (MCF7 breast) is reported as 2.01 µM, the TGI (MCF7 breast) is reported as > 100 µM and the GI50 (SR leukemia) is reported as 0.495 µM. The TGI (SR leukemia) was > 100 µM, the GI50 (HT29 colon) was 0.652 µM and the TGI (HT29 colon) was > 100 µM. For the same compound, the GI50 (K-562 leukemia) was 2.01 µM, the TGI (K-562 leukemia) was > 100 µM and the GI50 (MOLT-4 leukemia) was 1.83 µM. The TGI (MOLT-4 leukemia) was > 100 µM, the GI50 (OVCAR-8 ovarian) was 1.48 µM and the TGI (OVCAR-8 ovarian) was > 100 µM. It also gave a GI50 (DU-145 prostate) of 0.548 µM and a TGI (DU-145 prostate) of 3.79 µM.

In the case of `ClC1=NC(Cl)C(Cl)=N/C1=N\c1ncn[nH]1` (stereo not drawn), the GI50 (SNB-75 CNS) is reported as 5.64 µM, the TGI (SNB-75 CNS) is reported as 20.7 µM and the GI50 (A498 renal) is reported as 17.8 µM. For the same compound, the TGI (A498 renal) was 33.4 µM, the GI50 (UACC-257 melanoma) was 1.7 µM and the TGI (UACC-257 melanoma) was 4.25 µM. It also gave a GI50 (SK-MEL-28 melanoma) of 1.95 µM, a TGI (SK-MEL-28 melanoma) of 4.04 µM and a GI50 (MCF7 breast) of 1.78 µM. For the same compound, the TGI (MCF7 breast) was 4.15 µM, the GI50 (NCI-H226 lung) was 3.27 µM and the TGI (NCI-H226 lung) was 15.9 µM. The GI50 (IGROV1 ovarian) was 2.23 µM, the TGI (IGROV1 ovarian) was 4.63 µM and the GI50 (HCC-2998 colon) was 2.17 µM. For the same compound, the TGI (HCC-2998 colon) was 4.28 µM, the GI50 (MALME-3M melanoma) was 1.82 µM and the TGI (MALME-3M melanoma) was 3.7 µM. The GI50 (SR leukemia) was 1.3 µM, the TGI (SR leukemia) was 3.63 µM and the GI50 (HCT-15 colon) was 1.95 µM. The TGI (HCT-15 colon) was 4.68 µM, the GI50 (HOP-62 NSCLC) was 2.3 µM and the TGI (HOP-62 NSCLC) was 5.11 µM. It also gave a GI50 (ACHN renal) of 1.88 µM, a TGI (ACHN renal) of 3.48 µM and a GI50 (SN12C renal) of 1.76 µM. The TGI (SN12C renal) was 3.31 µM, the GI50 (A549 NSCLC) was 17.1 µM and the TGI (A549 NSCLC) was 34.4 µM. For the same compound, the GI50 (UO-31 renal) was 1.68 µM, the TGI (UO-31 renal) was 3.25 µM and the GI50 (LOX IMVI melanoma) was 1.89 µM. The TGI (LOX IMVI melanoma) was 3.72 µM, the GI50 (T-47D breast) was 1.9 µM and the TGI (T-47D breast) was 3.91 µM. The GI50 (SF-268 CNS) was 2.24 µM, the TGI (SF-268 CNS) was 5.22 µM and the GI50 (HCT-116 colon) was 1.76 µM. It also gave a TGI (HCT-116 colon) of 3.48 µM, a GI50 (SNB-19 CNS) of 11.8 µM and a TGI (SNB-19 CNS) of 25.4 µM. It also gave a GI50 (RXF 393 renal) of 1.71 µM, a TGI (RXF 393 renal) of 3.2 µM and a GI50 (SK-MEL-5 melanoma) of 5.57 µM. It also gave a TGI (SK-MEL-5 melanoma) of 18.7 µM, a GI50 (NCI/ADR-RES ovarian) of 3.15 µM and a TGI (NCI/ADR-RES ovarian) of 8.79 µM. For the same compound, the GI50 (OVCAR-5 ovarian) was 1.71 µM, the TGI (OVCAR-5 ovarian) was 3.27 µM and the GI50 (BT-549 breast) was 2.45 µM. For the same compound, the TGI (BT-549 breast) was 5.42 µM, the GI50 (MDA-MB-435) was 2.24 µM and the TGI (MDA-MB-435) was 6.01 µM. For the same compound, the GI50 (NCI-H460 lung) was 3.65 µM, the TGI (NCI-H460 lung) was 14.9 µM and the GI50 (OVCAR-3 ovarian) was 1.95 µM. It also gave a TGI (OVCAR-3 ovarian) of 3.4 µM, a GI50 (HT29 colon) of 2.03 µM and a TGI (HT29 colon) of 3.9 µM. The GI50 (SF-295 CNS) was 13.4 µM, the TGI (SF-295 CNS) was 28.5 µM and the GI50 (OVCAR-4 ovarian) was 1.89 µM. For the same compound, the TGI (OVCAR-4 ovarian) was 3.61 µM, the GI50 (SK-OV-3 ovarian) was 15.5 µM and the TGI (SK-OV-3 ovarian) was 29 µM. For the same compound, the GI50 (OVCAR-8 ovarian) was 2.27 µM, the TGI (OVCAR-8 ovarian) was 6.05 µM and the GI50 (786-0 renal) was 3.41 µM. It also gave a TGI (786-0 renal) of 11.4 µM, a GI50 (HS 578T breast) of 14.3 µM and a TGI (HS 578T breast) of 61 µM. For the same compound, the GI50 (MDA-MB-231 breast) was 1.79 µM, the TGI (MDA-MB-231 breast) was 3.55 µM and the GI50 (NCI-H522 lung) was 1.68 µM. The TGI (NCI-H522 lung) was 3.55 µM, the GI50 (SF-539 CNS) was 2.22 µM and the TGI (SF-539 CNS) was 5.6 µM. For the same compound, the GI50 (SK-MEL-2 melanoma) was 2.61 µM, the TGI (SK-MEL-2 melanoma) was 5.63 µM and the GI50 (DU-145 prostate) was 1.9 µM. It also gave a TGI (DU-145 prostate) of 3.43 µM, a GI50 (COLO 205 colon) of 2.28 µM and a TGI (COLO 205 colon) of 4.55 µM. For the same compound, the GI50 (SW-620 colon) was 2.06 µM, the TGI (SW-620 colon) was 4.3 µM and the GI50 (KM12 colon) was 2.27 µM. For the same compound, the TGI (KM12 colon) was 4.79 µM, the GI50 (U251 CNS) was 4.88 µM and the TGI (U251 CNS) was 17 µM. For the same compound, the GI50 (M14 melanoma) was 2.64 µM, the TGI (M14 melanoma) was 7.15 µM and the GI50 (HOP-92 NSCLC) was 1.59 µM. For the same compound, the TGI (HOP-92 NSCLC) was 3.1 µM, the GI50 (TK-10 renal) was 1.92 µM and the TGI (TK-10 renal) was 3.44 µM. The GI50 (RPMI-8226 leukemia) was 1.97 µM, the TGI (RPMI-8226 leukemia) was 4.43 µM and the GI50 (CAKI-1 renal) was 1.78 µM. For the same compound, the TGI (CAKI-1 renal) was 3.32 µM.
